Measurements reported in ChEMBL document CHEMBL1145164, “2-Acetylamino-3-[4-(2-acetylamino-2-carboxyethylsulfanylcarbonylamino)- phenylcarbamoylsulfanyl]propionic acid and its derivatives as a novel class of glutathione reductase inhibitors” (J Med Chem, 2005).

How the values were obtained:
Glutathione reductase [1] = target: T1, Glutathione reductase (Saccharomyces cerevisiae S288c, UniProt P41921); test: Inhibition of yeast glutathione reductase over 30 minutes pH 7.4 at 25 degree C
T1 sequence (P41921 whole entry): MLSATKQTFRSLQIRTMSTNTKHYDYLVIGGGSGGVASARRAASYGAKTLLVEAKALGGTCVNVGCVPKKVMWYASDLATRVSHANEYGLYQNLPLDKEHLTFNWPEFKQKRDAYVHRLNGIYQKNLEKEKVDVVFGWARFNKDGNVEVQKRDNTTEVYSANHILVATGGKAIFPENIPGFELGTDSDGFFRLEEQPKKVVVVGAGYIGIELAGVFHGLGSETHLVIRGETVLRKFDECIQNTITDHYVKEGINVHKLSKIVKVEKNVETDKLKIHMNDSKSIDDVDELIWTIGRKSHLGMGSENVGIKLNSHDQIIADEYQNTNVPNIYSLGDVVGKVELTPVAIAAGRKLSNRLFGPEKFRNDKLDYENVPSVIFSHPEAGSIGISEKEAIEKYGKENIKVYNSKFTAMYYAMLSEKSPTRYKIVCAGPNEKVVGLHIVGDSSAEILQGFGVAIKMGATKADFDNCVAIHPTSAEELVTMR

Glutathione reductase [2] = target: T1, Glutathione reductase; test: Inhibition of yeast glutathione reductase done for 30 minutes in pH 7.4 at 25 degree C with compound (0.2 mM)
[3] = target: T2, Glutathione reductase (Saccharomyces cerevisiae S288c) (UniProt P41921)
T2 sequence (whole entry): T1 sequence (P41921 whole entry)
Description: Kinact value for yeast glutathione reductase

[4] = target: T3, Glutathione S-transferase A1 (Homo sapiens) (UniProt P08263); test: Inhibitory activity of compound against glutathione S-transferase; settings: concentration not given here
T3 sequence (whole entry): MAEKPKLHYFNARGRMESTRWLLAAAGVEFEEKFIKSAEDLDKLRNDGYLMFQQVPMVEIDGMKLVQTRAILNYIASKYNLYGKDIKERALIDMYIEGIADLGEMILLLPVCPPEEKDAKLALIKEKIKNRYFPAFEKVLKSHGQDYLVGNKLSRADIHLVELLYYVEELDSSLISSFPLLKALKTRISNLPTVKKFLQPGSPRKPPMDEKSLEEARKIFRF

Glutathione reductase [5] = target: T1, Glutathione reductase; test: Inhibition of yeast glutathione reductase for 30 minutes pH 7.4 at 25 degree C at 0.2 mM

Structure (SMILES) | IC50 (Glutathione reductase [1]) [µM] | other results
CC(=O)NC(CSC(=O)Nc1cccc(NC(=O)SCC(NC(C)=O)C(=O)O)c1)C(=O)O (stereo unspecified) | 149 | –
CC(=O)NC(CSC(=O)Nc1ccc(NC(=O)SCC(NC(C)=O)C(=O)O)cc1)C(=O)O (stereo unspecified) | – | IC50 (Glutathione reductase [2]): 50 µM; Kinact [3]: 0.1 min⁻¹; inhibition [4]: 13%; Ki (Glutathione reductase [5]): 88 µM
CC(=O)NC(CSC(=O)Nc1ccc(Cc2ccc(NC(=O)SCC(NC(C)=O)C(=O)O)cc2)cc1)C(=O)O (stereo unspecified) | 85 | –
O=NN(CCCl)C(=O)NCCCl [CARMUSTINE] | 441 | –

The remaining compounds from weak to strong by IC50 (Glutathione reductase [1]), led by results:

IC50 (Glutathione reductase [1]) [µM] | Structure (SMILES) | other results
515 | CC(=O)NC(CSC(=O)NCCCCNC(=O)SCC(NC(C)=O)C(=O)O)C(=O)O (stereo unspecified) | –
477 | CC(=O)NC(CSC(=O)NC1CCC(CC2CCC(NC(=O)SCC(NC(C)=O)C(=O)O)CC2)CC1)C(=O)O (stereo unspecified) | –
455 | CC(=O)NC(CSC(=O)NCCCCCCNC(=O)SCC(NC(C)=O)C(=O)O)C(=O)O (stereo unspecified) | –
117 | CC(=O)NC(CSC(=O)NCc1ccc(NC(=O)SCC(NC(C)=O)C(=O)O)cc1)C(=O)O (stereo unspecified) | –
